Reference: US11173145B2, “Compounds useful as inhibitors of indoleamine 2,3-dioxygenase and/or tryptophan dioxygenase” (Board of Regents, The University of Texas System, priority 2017, dated 2021)

Tests used:
[1] = molecular target: T1, IDO1 (Homo sapiens, UniProt P14902); assay: IDO1 cell-based assay (HeLa cells, IFNgamma-induced, N-formylkynurenine/L-tryptophan by RFMS); details: 10 ng/mL IFNgamma, 24 hours
T1 construct: endogenous in cells; host or cells: HeLa cells (ATCC), IFNgamma-induced
Method in brief: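 HeLa cells stimulated with 10 ng/mL IFNgamma and exposed to compound (0.5% DMSO final) for 24 h at 37 °C. Conditioned media deproteinized, then N-formylkynurenine and L-tryptophan quantified by RapidFire MS with deuterated tryptophan internal standard; IC50 by curve fitting. Viability checked by CellTiter-Glo.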

[2] = molecular target: T2, mouse IDO1 (Mus musculus, UniProt P28776); assay: Mouse IDO1 cell-based assay (PANC02 cells, mouse IFNgamma-induced, N-formylkynurenine/L-tryptophan by RFMS); details: 30 ng/mL mouse IFNgamma, 48 hours
T2 construct: The murine PANC02 pancreatic ductal adenocarcinoma cell line was routinely maintained in DMEM media; endogenous in cells; host or cells: PANC02 murine pancreatic ductal adenocarcinoma cells, induced with mouse IFNgamma
T2 sequence (P28776 whole entry): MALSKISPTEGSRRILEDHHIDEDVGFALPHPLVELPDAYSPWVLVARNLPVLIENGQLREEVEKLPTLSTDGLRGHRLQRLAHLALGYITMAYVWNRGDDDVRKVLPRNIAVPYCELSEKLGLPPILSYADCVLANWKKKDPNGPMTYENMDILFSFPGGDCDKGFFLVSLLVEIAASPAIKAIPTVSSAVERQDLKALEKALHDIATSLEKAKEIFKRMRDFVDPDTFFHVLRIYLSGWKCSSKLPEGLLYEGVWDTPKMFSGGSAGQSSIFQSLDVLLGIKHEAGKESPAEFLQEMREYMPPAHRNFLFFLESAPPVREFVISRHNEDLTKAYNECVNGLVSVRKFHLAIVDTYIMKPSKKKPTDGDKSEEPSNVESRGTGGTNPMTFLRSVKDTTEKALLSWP

T1 sequence (P14902 whole entry): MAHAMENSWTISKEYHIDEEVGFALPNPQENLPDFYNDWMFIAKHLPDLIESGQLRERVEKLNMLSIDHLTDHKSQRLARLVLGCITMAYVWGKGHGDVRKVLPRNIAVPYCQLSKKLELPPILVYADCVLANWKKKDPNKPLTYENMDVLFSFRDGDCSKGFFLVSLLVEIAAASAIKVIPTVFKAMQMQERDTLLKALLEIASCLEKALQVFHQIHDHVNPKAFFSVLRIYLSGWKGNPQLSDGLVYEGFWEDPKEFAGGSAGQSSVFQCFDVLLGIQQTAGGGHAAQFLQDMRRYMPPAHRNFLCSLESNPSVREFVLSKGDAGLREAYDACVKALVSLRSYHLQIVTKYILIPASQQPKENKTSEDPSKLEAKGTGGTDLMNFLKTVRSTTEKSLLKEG

| IC50 [1] | IC50 [2] | SMILES |
| --- | --- | --- |
| < 200 nM | 500 to 2000 nM | CCC(NC(=O)c1ccc(Cl)cc1)[C@H]1[C@@H]2C[C@@H](n3ncc4ccc(F)cc43)C[C@@H]21 (stereo partly drawn) [Compound 162, 4-chloro-N-(1-((1R,3s,5S,6r)-3-(6-fluoro-1H-indazol-1-yl)bicyclo[3.1.0]hexan-6-yl)propyl)benzamide] |
| < 200 nM | < 500 nM | CCC(NC(=O)c1ccc(Cl)cc1)[C@H]1[C@@H]2C[C@H](NC(=O)c3ncccc3F)C[C@@H]21 (stereo partly drawn) [Compound 220, N-((1R,3r,5S,6r)-6-(1-(4-chlorobenzamido)propyl)bicyclo[3.1.0]hexan-3-yl)-3-fluoropicolinamide] |
| < 200 nM | < 500 nM | CCC(NC(=O)c1ccc(Cl)cc1)[C@H]1[C@@H]2C[C@H](n3cc(COC)nn3)C[C@@H]21 (stereo partly drawn) [Compound 214, 4-chloro-N-(1-((1R,3r,5S,6r)-3-(4-(methoxymethyl)-1H-1,2,3-triazol-1-yl)bicyclo[3.1.0]hexan-6-yl)propyl)benzamide] |
| < 200 nM | < 500 nM | CCC(NC(=O)c1ccc(Cl)cc1)[C@H]1[C@@H]2C[C@@H](Nc3ccccn3)C[C@@H]21 (stereo partly drawn) [Compound 226, 4-chloro-N-(1-((1R,3s,5S,6r)-3-(pyridin-2-ylamino)bicyclo[3.1.0]hexan-6-yl)propyl)benzamide] |
| < 200 nM | 2000 to 5000 nM | CCC(NC(=O)c1ccc(Cl)cc1)[C@H]1[C@@H]2C[C@@H](Oc3ncnc4cc(Cl)ccc34)C[C@@H]21 (stereo partly drawn) [Compound 253, 4-chloro-N-(1-((1R,3s,5S,6r)-3-((7-chloroquinazolin-4-yl)oxy)bicyclo[3.1.0]hexan-6-yl)propyl)benzamide] |
| < 200 nM | 500 to 2000 nM | CCC(NC(=O)c1ccc(Cl)cc1)[C@H]1[C@@H]2C[C@@H](n3ccc4ncnc-4c3)C[C@@H]21 (stereo partly drawn) [Compound 198, N-(1-((1R,3s,5S,6r)-3-(5H-imidazo[4,5-c]pyridin-5-yl)bicyclo[3.1.0]hexan-6-yl)propyl)-4-chlorobenzamide] |
| < 200 nM | 2000 to 5000 nM | CCC(NC(=O)c1ccc(Cl)cc1)[C@H]1[C@@H]2C[C@@H](n3nc4ccc(Br)cc4n3)C[C@@H]21 (stereo partly drawn) [Compound 179, N-(1-((1R,3s,5S,6r)-3-(5-bromo-2H-benzo[d][1,2,3]triazol-2-yl)bicyclo[3.1.0]hexan-6-yl)propyl)-4-chlorobenzamide] |
| < 200 nM | < 500 nM | CCC(NC(=O)c1ccc(Cl)cc1)[C@H]1[C@@H]2C[C@@H](n3cc4cccnc4n3)C[C@@H]21 (stereo partly drawn) [Compound 211, N-(1-((1R,3s,5S,6r)-3-(2H-pyrazolo[3,4-b]pyridin-2-yl)bicyclo[3.1.0]hexan-6-yl)propyl)-4-chlorobenzamide] |
